Assay results as given in patent US11691962B2 (eXIthera Pharmaceuticals, Inc., priority 2018, dated 2023).

Biological target: Factor XIa (Homo sapiens (Human), UniProt P03951)
Assay: Factor XIa enzyme inhibition assay (dose response, fluorogenic AMC substrate)
Type: biochemical
Conditions: read-out: hFXIa IC50
Procedure: • Assay buffer: 20 mM Hepes, pH 7.4; 150 mM NaCl; 0.02% Tween 20 • Compounds: 10 mM stocks in DMSO • Substrate: 20 mM Glp-Pro-Arg-AMC, 25 mg/2.3 mL H2O (store at +4° C.) [Factor XIa, thrombin, and trypsin] • 20 mM Pro-Phe-Arg-AMC (Bachem I-1295), 25 mg/2.2 mL H2O • or Boc-Leu-Gly-Arg-AMC (Bachem I-1105), 25 mg/2.07 mL H2O • (store at +4° C.) [Factor Xa] • Enzyme: Factor XIa; 0.25 μM in 50% glycerol (20 μg/mL) • Trypsin; 0.2 μM in 50% glycerol (4.8 μg/mL) • Thrombin; 0.2 μM in 50% glycerol (7.34 μg/mL) • Factor Xa; 0.2 μM in 50% glycerol (9.2 μg/mL) • These stocks are aliquoted (˜100 μL/aliquot) and stored at −20° C. Methods: • 1. Dilute the substrate to 100 μM in assay buffer (30 μL/6 mL). The enzyme is diluted to 0.5 nM just prior to use (12 μL/6 mL for Factor XIa; 15 μL/6 mL for all of the rest.) • 2. Pipette 50 μL of substrate into each well of the 96 well (12×8) microtiter plate. (Column 1 is used as the 100% activity control and receives no compound, and Column 12 is the blank and receives no enzyme.) Add an additional 46 μL to column 2. • 3. Pipette 4 μL of each compound into the appropriate well in column 2 of the plate (unknowns assayed in triplicate, standard assayed in duplicate). The final compound concentration will be […] of the stock. • 4. Serially two-fold dilute the compound by mixing the sample in column 2, removing 50 μL to the next well (column 3), mix and remove to column 4, etc. until column 11. After mixing column 11, remove 50 μL and discard. • 5. Pipette 50 μL of buffer into column 12. Initiate the reaction by adding 50 μL of enzyme solution to each well of columns 1-11 as rapidly as possible. • 6. Read the plate in a spectrophotometer (SpectraMax) at 30° C., wherein each well is measured every 60 s for 30 min. For Factor Xa assays, each well is measured every 1 min for a total of 60 min. • 7. For Factor XIa assays, the compounds are assayed, in duplicate, at 3 different starting concentrations, 20, 2, and 0.2 μM; 1:10, 1:100, and 1:1000 dilution of 10 mM stock or at 2, 0.2, and 0.02 μM; 1:100, 1:1000, and 1:10,000 dilution of 10 mM stock. Data for each concentration are combined for graphing and data fitting. • 8. Data can be used both for estimation of IC50 and for estimation of Kon.
Potential inhibitors of Factor XIa were evaluated using the following assay.
PyroGlu-Pro-Arg-7-methylaminocourin (AMC), available from CPC Scientific, Inc., is based on the substrate pyro-Glu-Pro-Arg-pNA (S-2366), available from Diapharma Group, Inc. (Columbus, Ohio), wherein the p-nitroanaline group is replaced with 7-methylaminocoumarin (AMC).
The final concentration of the substrate in the assay was 50 μM, and the final concentration of the enzyme was 0.25 nM. Inhibitors were tested by serial dilution over an appropriate range to yield a dose response curve for determination of the inhibitors' IC50 value. The assay mixture was read every minute for 30 minutes in order to generate progress curves. The plates were read in a Spectramax m5 Multimode Plate Reader (Molecular Devices LLC, Sunnyvale, Calif.). Dose response curves were fit to Equation 1 below in which A is the maximum inhibition, B is the minimum inhibition, C is the IC50, and D is the Hill coefficient. Y=[(A−B)/(1+(X/C)^D)]+B (Equation 1)

Factor XIa, sequence (P03951 388-625): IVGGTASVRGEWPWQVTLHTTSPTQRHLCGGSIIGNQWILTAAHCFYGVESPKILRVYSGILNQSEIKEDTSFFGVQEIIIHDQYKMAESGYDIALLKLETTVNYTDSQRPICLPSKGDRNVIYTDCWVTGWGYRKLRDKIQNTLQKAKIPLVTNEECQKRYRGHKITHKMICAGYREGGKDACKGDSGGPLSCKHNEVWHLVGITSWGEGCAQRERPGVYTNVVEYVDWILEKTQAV
Factor XIa, sequence (P03951 19-387 partner): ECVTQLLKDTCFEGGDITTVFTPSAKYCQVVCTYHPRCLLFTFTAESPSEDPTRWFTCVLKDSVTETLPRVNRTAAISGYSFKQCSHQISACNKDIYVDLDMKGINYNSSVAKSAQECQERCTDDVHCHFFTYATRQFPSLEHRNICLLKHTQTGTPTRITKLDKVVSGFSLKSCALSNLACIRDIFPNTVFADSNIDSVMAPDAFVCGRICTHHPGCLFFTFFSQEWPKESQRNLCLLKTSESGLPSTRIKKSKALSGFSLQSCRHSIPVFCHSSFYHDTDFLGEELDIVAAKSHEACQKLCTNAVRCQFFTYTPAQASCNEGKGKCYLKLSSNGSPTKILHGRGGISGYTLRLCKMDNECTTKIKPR

IC50	SMILES
0.01 to 0.1 µM	CN(C(=O)[C@@H]1[C@@H](Cc2ccnc(N)c2)C(=O)N1C(=O)NC(C1CCCCC1)C(F)(F)F)c1ccnn1C (stereo in doubt) [Compound 1-6, (2S,3R)-3-((2-aminopyridin-4-yl)methyl)-N2-(1-methyl-1H-pyrazol-5-yl)-N1-((R)-1-cyclohexyl-2,2,2-trifluoroethyl)-N2-methyl-4-oxoazetidine-1,2-dicarboxamide]
0.01 to 0.1 µM	Cc1cc(C[C@H]2C(=O)N(C(=O)NC(C3CCCCC3)C(F)(F)F)[C@@H]2C(=O)N(C)c2nccn2C)cc(N)n1 (stereo in doubt) [Compound 1-77, (2S,3R)-3-((2-amino-6-methylpyridin-4-yl)methyl)-N2-(1-methyl-1H-imidazol-2-yl)-N1-((R)-1-cyclohexyl-2,2,2-trifluoroethyl)-N2-methyl-4-oxoazetidine-1,2-dicarboxamide]
> 1 µM	CC[C@@H](NC(=O)N1C(=O)[C@H](Cc2ccnc(N(C)C)c2)[C@H]1C(=O)N(C)c1cnn(C)c1)c1ccccc1 [Compound 1-5, (2S,3R)-3-((2-dimethylaminopyridin-4-yl)methyl)-N2-(1-methyl-1H-pyrazol-4-yl)-N1-((R)-1-phenylpropyl)-N2-methyl-4-oxoazetidine-1,2-dicarboxamide]
0.01 to 0.1 µM	CC[C@H](c1cccc(Cl)c1)N(C)C(=O)N1C(=O)[C@H](Cc2ccnc(N)c2)[C@H]1C(=O)N(C)c1ccn(C)n1 [Compound 1-7, (2S,3R)-3-((2-aminopyridin-4-yl)methyl)-N2-(1-methyl-1H-pyrazol-3-yl)-N1-((R)-1-(3-chlorophenyl)propyl)-N1-methyl-N2-methyl-4-oxoazetidine-1,2-dicarboxamide]
0.01 to 0.1 µM	CC[C@@H](NC(=O)N1C(=O)[C@H](Cc2ccnc(N)c2)[C@H]1C(=O)N(C)c1ccn(C)n1)c1cccc(C)c1 [Compound 1-14, (2S,3R)-3-((2-aminopyridin-4-yl)methyl)-N2-(1-methyl-1H-pyrazol-3-yl)-N1-((R)-1-(3-methylphenyl)propyl)-N2-methyl-4-oxoazetidine-1,2-dicarboxamide]
< 0.01 µM	CC[C@@H](NC(=O)N1C(=O)[C@H](Cc2ccnc(N)c2)[C@H]1C(=O)N(C)c1ccn(C)n1)c1ccc(C)nc1 [Compound 1-20, (2S,3R)-3-((2-aminopyridin-4-yl)methyl)-N2-(1-methyl-1H-pyrazol-3-yl)-N1-((R)-1-(6-methylpyridin-3-yl)propyl)-N2-methyl-4-oxoazetidine-1,2-dicarboxamide]
0.01 to 0.1 µM	CC[C@@H](NC(=O)N1C(=O)[C@H](Cc2ccnc(N)c2)[C@H]1C(=O)N(C)c1ccsn1)c1ccccc1 [Compound 1-21, (2S,3R)-3-((2-aminopyridin-4-yl)methyl)-N2-(3-isothiazolyl)-N1-((R)-1-phenylpropyl)-N2-methyl-4-oxoazetidine-1,2-dicarboxamide]
< 0.01 µM	CC[C@@H](NC(=O)N1C(=O)[C@H](Cc2ccnc(N)c2)[C@H]1C(=O)N(C)c1cscn1)c1cccc(C)c1 [Compound 1-24, (2S,3R)-3-((2-aminopyridin-4-yl)methyl)-N2-(4-thiazolyl)-N1-((R)-1-(3-methylphenyl)propyl)-N2-methyl-4-oxoazetidine-1,2-dicarboxamide]
0.01 to 0.1 µM	CN(C(=O)[C@@H]1[C@@H](Cc2ccnc(N)c2)C(=O)N1C(=O)NCc1cccc(Cl)c1)c1cnn(C)c1 [Compound 1-27, (2S,3R)-3-((2-aminopyridin-4-yl)methyl)-N2-(1-methyl-1H-pyrazol-4-yl)-N1-((3-chlorophenyl)methyl)-N2-methyl-4-oxoazetidine-1,2-dicarboxamide]

SMILES	IC50
CC[C@@H](NC(=O)N1C(=O)[C@H](Cc2ccnc(NC(=O)OC(C)(C)C)c2)[C@H]1C(=O)N(C)c1cnn(C)c1)c1cccc(Cl)c1 [Compound 1-23, (2S,3R)-3-((2-(((tert-butoxy)carbonyl)amino)pyridin-4-yl)methyl)-N2-(1-methyl-1H-pyrazol-4-yl)-N1-((R)-1-(3-chlorophenyl)propyl)-N2-methyl-4-oxoazetidine-1,2-dicarboxamide]	> 1 µM
